Assay results reported in ChEMBL document CHEMBL1201862, “PubChem BioAssay data set” (2004).
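Briefly, cells in 96-well plates were exposed to five compound concentrations for 48 h, and endpoints were estimated by linear interpolation. Here, GI50 denotes the concentration required for 50% inhibition of growth.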 Calls of active or inactive are those of the source. Rule as the data show it: active = GI50 up to about 1.1 µM and inactive = higher.

Experiments:
Experiment in all cases: NCI-60 cell line screen, 48 h
T47D = tested on: T47D
CCRF-CEM = tested on: CCRF-CEM
SF-295 = tested on: SF-295
NCI-H23 = tested on: NCI-H23
NCI/ADR-RES = tested on: NCI/ADR-RES
HL-60 = tested on: HL-60
MDA-MB-435 = tested on: MDA-MB-435
SNB-19 = tested on: SNB-19
HCC 2998 = tested on: HCC 2998
HCT-116 = tested on: HCT-116
MDA-MB-231 = tested on: MDA-MB-231
UACC-62 = tested on: UACC-62
A549 = tested on: A549
OVCAR-8 = tested on: OVCAR-8
SW-620 = tested on: SW-620
ACHN = tested on: ACHN
UO-31 = tested on: UO-31
HOP-92 = tested on: HOP-92
DU-145 = tested on: DU-145
HCT-15 = tested on: HCT-15
MDA-N = tested on: MDA-N
HT-29 = tested on: HT-29
MOLT-4 = tested on: MOLT-4
HOP-62 = tested on: HOP-62
EKVX = tested on: EKVX
NCI-H522 = tested on: NCI-H522
Malme-3M = tested on: Malme-3M
OVCAR-3 = tested on: OVCAR-3
SF-539 = tested on: SF-539
NCI-H226 = tested on: NCI-H226
RPMI-8226 = tested on: RPMI-8226
SK-MEL-2 = tested on: SK-MEL-2
UACC-257 = tested on: UACC-257
TK-10 = tested on: TK-10
Hs-578T = tested on: Hs-578T
CAKI-1 = tested on: CAKI-1
IGROV-1 = tested on: IGROV-1
SK-MEL-28 = tested on: SK-MEL-28
COLO 205 = tested on: COLO 205
U-251 = tested on: U-251
NCI-H460 = tested on: NCI-H460
SK-OV-3 = tested on: SK-OV-3
SN12C = tested on: SN12C
OVCAR-5 = tested on: OVCAR-5
A498 = tested on: A498
SNB-75 = tested on: SNB-75
RXF 393 = tested on: RXF 393
M14 = tested on: M14
786-0 = tested on: 786-0
LOX IMVI = tested on: LOX IMVI
MCF7 = tested on: MCF7
OVCAR-4 = tested on: OVCAR-4
SF-268 = tested on: SF-268
KM12 = tested on: KM12
BT-549 = tested on: BT-549
SK-MEL-5 = tested on: SK-MEL-5
PC-3 = tested on: PC-3
K562 = tested on: K562
SR = tested on: SR

Q: For `Cc1ccc2c(c1)C(=O)C(Cc1ccccc1C(=O)O)C2` (configuration not stated), which GI50 (T47D) is on record?
A: > 100 µM (inactive)

Q: What about the GI50 (CCRF-CEM) of the same molecule?
A: > 100 µM (inactive)

Q: What about the GI50 (SF-295) of the same molecule?
A: > 100 µM (inactive)

Q: And the GI50 (NCI-H23)?
A: > 100 µM (inactive)

Q: What about the GI50 (NCI/ADR-RES) of the same molecule?
A: > 100 µM (inactive)

Q: What about the GI50 (HL-60) of the same molecule?
A: > 100 µM (inactive)

Q: What about the GI50 (MDA-MB-435) of the same molecule?
A: > 100 µM (inactive)

Q: And the GI50 (SNB-19)?
A: > 100 µM (inactive)

Q: What about the GI50 (HCC 2998) of the same molecule?
A: > 100 µM (inactive)

Q: What about the GI50 (HCT-116) of the same molecule?
A: > 100 µM (inactive)

Q: And the GI50 (MDA-MB-231)?
A: > 100 µM (inactive)

Q: And the GI50 (UACC-62)?
A: > 100 µM (inactive)

Q: And the GI50 (A549)?
A: > 100 µM (inactive)

Q: And the GI50 (OVCAR-8)?
A: > 100 µM (inactive)

Q: And the GI50 (SW-620)?
A: > 100 µM (inactive)

Q: What about the GI50 (ACHN) of the same molecule?
A: > 100 µM (inactive)

Q: And the GI50 (UO-31)?
A: > 100 µM (inactive)

Q: And the GI50 (HOP-92)?
A: > 100 µM (inactive)

Q: What about the GI50 (DU-145) of the same molecule?
A: > 100 µM (inactive)

Q: And the GI50 (HCT-15)?
A: > 100 µM

Q: And the GI50 (MDA-N)?
A: > 100 µM (inactive)

Q: And the GI50 (HT-29)?
A: > 100 µM (inactive)

Q: And the GI50 (MOLT-4)?
A: > 100 µM (inactive)

Q: What about the GI50 (HOP-62) of the same molecule?
A: > 100 µM (inactive)

Q: And the GI50 (EKVX)?
A: > 100 µM (inactive)

Q: And the GI50 (NCI-H522)?
A: > 100 µM (inactive)

Q: What about the GI50 (Malme-3M) of the same molecule?
A: > 100 µM (inactive)

Q: And the GI50 (OVCAR-3)?
A: > 100 µM (inactive)

Q: What about the GI50 (SF-539) of the same molecule?
A: > 100 µM (inactive)

Q: What about the GI50 (NCI-H226) of the same molecule?
A: > 100 µM (inactive)

Q: What about the GI50 (RPMI-8226) of the same molecule?
A: > 100 µM (inactive)

Q: What about the GI50 (SK-MEL-2) of the same molecule?
A: > 100 µM (inactive)

Q: What about the GI50 (UACC-257) of the same molecule?
A: > 100 µM (inactive)

Q: What about the GI50 (TK-10) of the same molecule?
A: > 100 µM (inactive)

Q: And the GI50 (Hs-578T)?
A: > 100 µM (inactive)

Q: And the GI50 (CAKI-1)?
A: > 100 µM (inactive)

Q: What about the GI50 (IGROV-1) of the same molecule?
A: > 100 µM (inactive)

Q: What about the GI50 (SK-MEL-28) of the same molecule?
A: > 100 µM (inactive)

Q: And the GI50 (COLO 205)?
A: > 100 µM (inactive)

Q: What about the GI50 (U-251) of the same molecule?
A: > 100 µM (inactive)

Q: What about the GI50 (NCI-H460) of the same molecule?
A: > 100 µM (inactive)

Q: And the GI50 (SK-OV-3)?
A: > 100 µM (inactive)

Q: And the GI50 (SN12C)?
A: > 100 µM (inactive)

Q: What about the GI50 (OVCAR-5) of the same molecule?
A: > 100 µM (inactive)

Q: What about the GI50 (A498) of the same molecule?
A: > 100 µM (inactive)

Q: What about the GI50 (SNB-75) of the same molecule?
A: > 100 µM (inactive)

Q: What about the GI50 (RXF 393) of the same molecule?
A: > 100 µM (inactive)

Q: What about the GI50 (M14) of the same molecule?
A: > 100 µM (inactive)

Q: What about the GI50 (786-0) of the same molecule?
A: > 100 µM (inactive)

Q: What about the GI50 (LOX IMVI) of the same molecule?
A: > 100 µM (inactive)

Q: And the GI50 (MCF7)?
A: > 100 µM (inactive)

Q: And the GI50 (OVCAR-4)?
A: > 100 µM (inactive)

Q: What about the GI50 (SF-268) of the same molecule?
A: > 100 µM (inactive)

Q: What about the GI50 (KM12) of the same molecule?
A: > 100 µM (inactive)

Q: What about the GI50 (BT-549) of the same molecule?
A: > 100 µM (inactive)

Q: And the GI50 (SK-MEL-5)?
A: > 100 µM (inactive)

Q: And the GI50 (PC-3)?
A: > 100 µM (inactive)

Q: And the GI50 (K562)?
A: > 100 µM (inactive)

Q: What about the GI50 (SR) of the same molecule?
A: > 100 µM (inactive)

Q: For `O=C1CCCC1C(O)(C(F)(F)Cl)C(F)(F)Cl` (configuration not stated), which GI50 (T47D) is on record?
A: > 10 µM (inactive)

Q: What about the GI50 (CCRF-CEM) of the same molecule?
A: > 10 µM (inactive)

Q: And the GI50 (SF-295)?
A: > 10 µM (inactive)

Q: And the GI50 (NCI-H23)?
A: > 10 µM (inactive)

Q: What about the GI50 (NCI/ADR-RES) of the same molecule?
A: > 10 µM (inactive)

Q: And the GI50 (HL-60)?
A: > 10 µM (inactive)

Q: What about the GI50 (MDA-MB-435) of the same molecule?
A: > 10 µM (inactive)

Q: And the GI50 (SNB-19)?
A: > 10 µM (inactive)

Q: And the GI50 (HCC 2998)?
A: > 10 µM (inactive)

Q: What about the GI50 (HCT-116) of the same molecule?
A: > 10 µM (inactive)

Q: And the GI50 (MDA-MB-231)?
A: > 10 µM (inactive)

Q: What about the GI50 (UACC-62) of the same molecule?
A: > 10 µM (inactive)

Q: And the GI50 (A549)?
A: > 10 µM (inactive)

Q: And the GI50 (OVCAR-8)?
A: > 10 µM (inactive)

Q: And the GI50 (SW-620)?
A: > 10 µM (inactive)

Q: What about the GI50 (ACHN) of the same molecule?
A: > 10 µM (inactive)

Q: And the GI50 (HOP-92)?
A: > 10 µM (inactive)

Q: And the GI50 (DU-145)?
A: > 10 µM (inactive)

Q: And the GI50 (HCT-15)?
A: > 10 µM

Q: And the GI50 (MDA-N)?
A: > 10 µM (inactive)

Q: What about the GI50 (HT-29) of the same molecule?
A: > 10 µM (inactive)

Q: And the GI50 (MOLT-4)?
A: > 10 µM (inactive)

Q: And the GI50 (HOP-62)?
A: > 10 µM (inactive)

Q: What about the GI50 (EKVX) of the same molecule?
A: > 10 µM (inactive)

Q: What about the GI50 (NCI-H522) of the same molecule?
A: > 10 µM (inactive)

Q: And the GI50 (Malme-3M)?
A: > 10 µM (inactive)

Q: What about the GI50 (OVCAR-3) of the same molecule?
A: > 10 µM (inactive)

Q: And the GI50 (SF-539)?
A: > 10 µM (inactive)

Q: And the GI50 (NCI-H226)?
A: > 10 µM (inactive)

Q: And the GI50 (RPMI-8226)?
A: > 10 µM (inactive)

Q: And the GI50 (SK-MEL-2)?
A: > 10 µM (inactive)

Q: What about the GI50 (UACC-257) of the same molecule?
A: > 10 µM (inactive)

Q: What about the GI50 (TK-10) of the same molecule?
A: > 10 µM (inactive)

Q: What about the GI50 (Hs-578T) of the same molecule?
A: > 10 µM (inactive)

Q: And the GI50 (CAKI-1)?
A: > 10 µM (inactive)

Q: What about the GI50 (IGROV-1) of the same molecule?
A: > 10 µM (inactive)

Q: What about the GI50 (SK-MEL-28) of the same molecule?
A: > 10 µM (inactive)

Q: What about the GI50 (COLO 205) of the same molecule?
A: > 10 µM (inactive)

Q: And the GI50 (U-251)?
A: > 10 µM (inactive)

Q: What about the GI50 (NCI-H460) of the same molecule?
A: > 10 µM (inactive)

Q: And the GI50 (SK-OV-3)?
A: > 10 µM (inactive)

Q: What about the GI50 (SN12C) of the same molecule?
A: > 10 µM (inactive)

Q: What about the GI50 (OVCAR-5) of the same molecule?
A: > 10 µM (inactive)

Q: And the GI50 (A498)?
A: > 10 µM (inactive)

Q: And the GI50 (SNB-75)?
A: > 10 µM (inactive)

Q: What about the GI50 (RXF 393) of the same molecule?
A: > 10 µM (inactive)

Q: And the GI50 (M14)?
A: > 10 µM (inactive)

Q: And the GI50 (786-0)?
A: > 10 µM (inactive)

Q: And the GI50 (LOX IMVI)?
A: > 10 µM (inactive)

Q: What about the GI50 (MCF7) of the same molecule?
A: > 10 µM (inactive)

Q: What about the GI50 (OVCAR-4) of the same molecule?
A: > 10 µM (inactive)

Q: What about the GI50 (SF-268) of the same molecule?
A: > 10 µM (inactive)

Q: What about the GI50 (KM12) of the same molecule?
A: > 10 µM (inactive)

Q: And the GI50 (BT-549)?
A: > 10 µM (inactive)

Q: What about the GI50 (SK-MEL-5) of the same molecule?
A: > 10 µM (inactive)

Q: And the GI50 (PC-3)?
A: > 10 µM (inactive)

Q: What about the GI50 (K562) of the same molecule?
A: > 10 µM (inactive)

Q: And the GI50 (SR)?
A: > 10 µM (inactive)
